# Reference: article PMC6405842, “Identification of a novel scaffold for a small molecule GPR139 receptor agonist” (Scientific Reports, 2019)
# Where two headings read alike, the source gives them in different places.
# Assays:
# [1] = molecular target: T1, GPR139 (Homo sapiens, UniProt Q6DWJ6); experiment: Fluo-4 calcium mobilization assay, agonist mode, concentration-response curves in CHO-GPR139 cells; format: cell-based; conditions: for EC50: at least three independent concentration-response curves in duplicate, read-out: EC50
# T1 construct: host or cells: CHO-k1
# T1 sequence (Q6DWJ6 1-353): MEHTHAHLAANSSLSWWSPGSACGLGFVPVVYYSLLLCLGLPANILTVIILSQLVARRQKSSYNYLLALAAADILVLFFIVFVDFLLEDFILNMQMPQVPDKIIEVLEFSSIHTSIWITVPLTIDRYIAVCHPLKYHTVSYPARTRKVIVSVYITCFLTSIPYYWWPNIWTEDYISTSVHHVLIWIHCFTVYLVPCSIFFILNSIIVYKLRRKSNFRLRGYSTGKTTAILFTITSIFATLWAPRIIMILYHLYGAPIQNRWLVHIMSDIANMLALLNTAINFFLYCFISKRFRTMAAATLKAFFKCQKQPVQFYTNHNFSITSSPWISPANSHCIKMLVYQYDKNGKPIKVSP
# Method: (§1) All compounds were tested on a CHO-k1 cell line stably expressing GPR139 (CHO-GPR139)[11] kindly provided by H. Lundbeck A/S, Denmark. GPR139-specific responses were assessed using a CHO-k1 cell line stably expressing the muscarinic acetylcholine receptor M1 (CHO-M1) (The Missouri S&T cDNA Resource Center, # CEM100TN00). The CHO-GPR139 cells were grown in Dulbecco’s modified Eagle’s medium (DMEM) F12-Kaighn’s (ThermoFisher Scientific # 21127) supplemented with 10% dialyzed fetal bovine serum (United States origin; ThermoFisher Scientific # 26400), 1% GlutaMAX-I (100X) (ThermoFisher Scientific # 35050061), and 100 units/mL penicillin and 100 µg/mL streptomycin (ThermoFisher Scientific # 15140122) and 1 mg/mL geneticin (ThermoFisher Scientific # 11811031). The CHO-M1 cells were grown in Ham’s F12 (ThermoFisher Scientific # 21765) supplemented with 10% fetal bovine serum (South American origin; ThermoFisher Scientific # 10270) + 100 units/mL penicillin and streptomycin and 0.25 mg/mL geneticin.
# The Fluo-4 Ca^2+-assay was performed as described previously, with minor modifications. After 1 hour incubation with the Fluo-4 dye, the CHO-GPR139 cells were washed with 100 μL HEPES buffer (Hank’s Balanced Salt Solution (HBBS, ThermoFisher Scientific # 14175053) supplemented with 20 mM HEPES, 1 mM MgCl2, 1 mM CaCl2, pH = 7.4) and the compound library was then added in concentrations between 25–63 μM dissolved in HEPES buffer (supplemented with 2.5 mM probenecid and 1% DMSO) and pre-incubated for 10 min at 37 °C. 33 μL of 3.2 μM 1a were added automatically after baseline measurements. […] This set-up allowed us to identify both antagonists and agonists (Fig. 2).
# Each compound, for which a concentration response curve was made, was tested at least three times in duplicate measurements. After the incubation with the Fluo-4 dye and a wash, 100 μL HEPES buffer (supplemented with 2.5 mM probenecid) was added to each well and incubated for 10 minutes at 37 °C before recording. 33 μL of compounds (4× concentrated) were added automatically after baseline measurements.
# (§2) The Ca^2+ and ERK responses were normalized as indicated and the concentration response curves were fitted by Prism 6 software (GraphPad) using nonlinear regression in a sigmoidal model with variable slope, as has been previously described.
# [2] = molecular target: T1, GPR139; experiment: Phospho-ERK1/2 HTRF assay in CHO-GPR139 cells; format: cell-based; conditions: ERK phosphorylation; for EC50 / pEC50 ± SEM: CHO-GPR139 cells; for Emax / Emax ± SEM: expressed relative to FBS positive control
# Method: All compounds were tested on a CHO-k1 cell line stably expressing GPR139 (CHO-GPR139)[11] kindly provided by H. Lundbeck A/S, Denmark. GPR139-specific responses were assessed using a CHO-k1 cell line stably expressing the muscarinic acetylcholine receptor M1 (CHO-M1) (The Missouri S&T cDNA Resource Center, # CEM100TN00).
# Phospho-ERK measurements were made using the Advanced Phospho-ERK1/2 (Thr202/Tyr204) HTRF kit by Cisbio (Codolet, France). Approximately 24 hours prior to the experiment, CHO-GPR139 cells were plated at 50,000 cells/well onto a 96-well plate and cultured as detailed above. Approximately 6 hours later, the media was aspirated, replaced with 50 μL serum-free media, and the cells were allowed to serum starve overnight. The day of the experiment, serial dilutions of the test compounds and controls were made in serum-free media at 2x final concentration. 50 μL of test compounds were added directly to the appropriate wells for 5 minute stimulation at 37 °C. At this point, the media and compounds were rapidly aspirated, lysis/blocking buffer was added, and cells were lysed on a shaker for 30 minutes at room temperature.
# as §2
# [3] = molecular target: T2, muscarinic acetylcholine receptor M1 (Homo sapiens, UniProt P11229); experiment: Calcium mobilization counter-screen in CHO-M1 cells; format: cell-based; conditions: concentration from which the calcium response is nonspecific
# T2 construct: host or cells: CHO-k1
# T2 sequence (P11229 1-460): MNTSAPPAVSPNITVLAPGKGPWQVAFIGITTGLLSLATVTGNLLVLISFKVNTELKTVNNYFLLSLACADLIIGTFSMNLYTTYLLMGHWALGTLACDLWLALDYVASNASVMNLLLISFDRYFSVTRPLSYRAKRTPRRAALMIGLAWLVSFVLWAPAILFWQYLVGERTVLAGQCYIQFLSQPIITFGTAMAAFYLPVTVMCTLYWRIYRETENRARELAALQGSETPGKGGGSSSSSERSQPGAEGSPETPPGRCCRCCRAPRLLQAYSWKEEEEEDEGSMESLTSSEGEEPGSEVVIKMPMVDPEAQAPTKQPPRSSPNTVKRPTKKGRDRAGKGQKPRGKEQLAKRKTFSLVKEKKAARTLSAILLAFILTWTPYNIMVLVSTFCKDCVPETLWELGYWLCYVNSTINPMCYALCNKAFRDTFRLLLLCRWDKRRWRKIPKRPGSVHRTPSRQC
# Method: as §1
# The primary screening of 4,000 diverse screening compounds on GPR139, led us to identify 108 initial actives in GPR139-expressing cells. […] We excluded compounds that had (1) an effect on another simultaneously tested GPCR (data not shown), (2) reactive groups, or (3) poor predicted solubility. 52 of the active compounds were re-purchased for validation, which were tested at three concentrations (100, 50 and 25 μM) using the same methodology as in the screening campaign. […] None of the 11 hits promoted calcium mobilization in the M1 receptor cells (data not shown). The 11 hits were then screened in pure agonist mode (i.e., without the presence of 1a) to evaluate if they were agonists or antagonists (Fig. 3 and Supplementary Table S1). All 11 hits were agonists.
# When screening the compounds as antagonists they were pre-incubated for 10 min as in the HTS. 33 μL of 3.2 μM 1a on the CHO-GPR139 cells or 20 μM carbachol on the CHO-M1 cells were added automatically after baseline measurements.
# [4] = molecular target: T1, GPR139; conditions: proposed endogenous GPR139 ligands; cited from earlier work
# [5] = read-out: pEC50 ± SEM (converted)
# [6] = CHO-GPR139 cells, normalized to buffer (0%) and 8 μM 1a (100%)
# [7] = 5 minute stimulation, read-out: EC50
pEC50 ± S.E.M. ([1]; CHO-GPR139 cells),EC50 ([1]; CHO-GPR139 cells) [nM],"Emax ± S.E.M. [1, 6] [%]",Compound,other results
–,–,–,"COc1cc(OC)cc(C(=O)NNC(=O)Nc2cccc3ccccc23)c1 [1a, reference compound]","EC80 concentration ([1]; used for second stimulation in the screen): 800 nM; EC50 [2, 5]: 28.2 nM; Emax [2]: 81.5 ± 4.12%"
–,–,–,"C[C@H](NC(=O)CNC(=O)c1cccc(Cl)c1)c1ccccc1 [7c, reference compound]","EC50 [2, 5]: 12.9 nM; Emax [2]: 89.1 ± 4.38%"
6.13 ± 0.14,740,104 ± 1,CC(=O)c1c(C)[nH]c(C(=O)CN2C(=O)NC(C)(c3ccc4c(c3)OCCO4)C2=O)c1C (stereo not shown) [AC123],Note: Nonspecific ≥ concentration [3]: Nonspecific ≥ 10 μM
6.09 ± 0.15,800,103 ± 5,CC1(c2ccc3c(c2)OCO3)NC(=O)N(CC(=O)c2ccc(Cl)s2)C1=O (stereo not shown) [AC134],Note: Nonspecific ≥ concentration [3]: Nonspecific ≥ 40 μM
7.02 ± 0.11,90,103 ± 1,Cc1ccc(C(C)NC(=O)NCC(=O)NCC2CC2)cc1F (stereo not shown) [AC177],"pEC50 ± SEM [2]: 7.65 ± 0.13; EC50 [2, 7]: 22 nM; Emax ± SEM [2]: 79.10 ± 3.19"
6.74 ± 0.19,180,110 ± 10,CC(C)COCCCNC(=O)NC(C)c1ccc(Cl)cc1Cl (stereo not shown) [AC183],"pEC50 ± SEM [2]: 7.41 ± 0.25; EC50 [2, 7]: 39 nM; Emax ± SEM [2]: 64.38 ± 5.28"
6.68 ± 0.02,210,106 ± 4,C=CCN(CC=C)C(=O)CN1C(=O)NC(C)(c2ccc3c(c2)OCCO3)C1=O (stereo not shown) [AC194],"pEC50 ± SEM [2]: 7.41 ± 0.30; EC50 [2, 7]: 39 nM; Emax ± SEM [2]: 62.32 ± 6.66"
6.71 ± 0.14,190,103 ± 1,CC1(c2ccc3c(c2)OCO3)NC(=O)N(CC(=O)N2CCc3ccccc32)C1=O (stereo not shown) [AC197],pEC50 ± SEM [2]: 7.03 ± 0.14; Emax ± SEM [2]: 78.70 ± 4.05
6.42 ± 0.06,380,94 ± 3,CCc1cccc2c(C(=O)CN3C(=O)NC(C)(c4ccc5c(c4)OCO5)C3=O)c[nH]c12 (stereo not shown) [AC206],Note: Nonspecific ≥ concentration [3]: Nonspecific ≥ 100 μM
6.05 ± 0.60,880,134 ± 26,CC1Cc2ccccc2N1C(=O)CN1C(=O)NC(C)(c2ccc3c(c2)OCCO3)C1=O (stereo not shown) [AC208],Note: Nonspecific ≥ concentration [3]: Nonspecific ≥ 30 μM
6.54 ± 0.17,290,107 ± 3,CC1(c2ccc3c(c2)OCCO3)NC(=O)N(CC(=O)N2CCc3ccccc3C2)C1=O (stereo not shown) [AC209],–
6.20 ± 0.24,630,115 ± 8,CCc1cccc2c(C(=O)CN3C(=O)NC(C)(c4ccc5c(c4)OCCO5)C3=O)c[nH]c12 (stereo not shown) [AC210],–
–,490,–,CC(C)(C)c1cc(NC(=O)Nc2ccc(-c3cn4c(n3)sc3cc(OCCN5CCOCC5)ccc34)cc2)no1 [AC220],"Emax [1, 6]: 103 ± 3%"
–,–,–,CCCCC/C=C/C/C=C/CCCCCCCC(=O)NC(C)c1ccccc1 (stereo not shown) [AC223],Note: Nonspecific ≥ concentration [3]: Nonspecific ≥ 50 μM
7.03 ± 0.02,90,106 ± 1,COc1cc(OC)cc(C(=O)NN2C(=O)NC(C)(c3ccccc3)C2=O)c1 (stereo not shown) [AC224],"pEC50 ± SEM [2]: 7.51 ± 0.28; EC50 [2, 7]: 31 nM; Emax ± SEM [2]: 69.37 ± 8.01"
6.36 ± 0.16,430,95 ± 2,C=CCN(CC=C)C(=O)CN1C(=O)NC(C)(c2cccc3ccccc23)C1=O (stereo not shown) [AC229],–
6.31 ± 0.27,490,89 ± 1,C=C(C)CN(CC)C(=O)CN1C(=O)NC(C)(c2cccc3ccccc23)C1=O (stereo not shown) [AC230],–
6.47 ± 0.19,340,80 ± 6,CC1(c2cccc3ccccc23)NC(=O)N(CC(=O)c2cc3ccccc3o2)C1=O (stereo not shown) [AC233],–
6.42 ± 0.07,380,99 ± 3,CC1(c2cccc3ccccc23)NC(=O)N(CC(=O)c2ccc3c(c2)OCO3)C1=O (stereo not shown) [AC234],–
6.38 ± 0.06,420,88 ± 3,CC1(c2cccc3ccccc23)NC(=O)N(CC(=O)c2ccc(CCNS(C)(=O)=O)s2)C1=O (stereo not shown) [AC241],–
6.45 ± 0.11,350,86 ± 5,CC1(c2cccc3ccccc23)NC(=O)N(CC(=O)NCCc2ccccc2)C1=O (stereo not shown) [AC243],–
–,–,–,"N[C@@H](Cc1c[nH]c2ccccc12)C(=O)O [L-tryptophan, reference compound]","EC50 [2, 7]: 770000 nM; EC50 [2, 5]: 759000 nM; Emax [2]: 70.6 ± 8.59%"
–,–,–,"ACTH: adrenocorticotropic hormone, proposed endogenous GPR139 ligand (SYSMEHFRWGKPVGKKRRPVKVYPNGAEDESAEAFPLEF; Corticotropin; UniProt P01189 138-176, looked up)",EC50 [4]: 2100 nM

Compound,pEC50 ± S.E.M. ([1]; CHO-GPR139 cells),EC50 ([1]; CHO-GPR139 cells) [nM],"Emax ± S.E.M. [1, 6] [%]",other results
COc1cccc(C(=O)CN2C(=O)NC(C)(c3ccc(Cl)cc3)C2=O)c1 (stereo not shown) [AC225],6.56 ± 0.05,280,120 ± 5,Note: Nonspecific ≥ concentration [3]: Nonspecific ≥ 10 μM
